In assay [1] the target is T1, hMC-4R (Homo sapiens, UniProt P32245).
T1 construct: expressed in transfected cells; host or cells: HEK293
Kind of assay: Functional assay (membrane based cAMP fluorescence polarization, agonistic activity). The assay is classed as biochemical. Particulars: cAMP produced compared to stimulation with NDP-alpha-MSH; read-out: % activation functional assay. The procedure: Agonistic activity of human melanocortin receptors is determined in a homogeneous membrane based assay.
Membrane preparations from HEK293 cells expressing the human melanocortin receptors are added. After a short preincubation period, an appropriate amount of ATP, GTP and the cAMP antibody is added and the plate is further incubated before the fluorescence labeled cAMP conjugate is dispensed. The plate is incubated for 2 h at 4°C before it is read on a fluorescence polarization microplate reader. The amount of cAMP produced as a response to a test compound is compared to the production of cAMP resulting from stimulation with NDP-alpha-MSH.

In assay [2] the target is T1, hMC-4R. Kind of assay: Membrane binding assay (fluorescence polarization, competition with fluorescence labeled NDP-alpha-MSH).
Setting [3] is: HEK293 cell membrane preparations expressing human melanocortin receptors, 5 h at room temperature, read-out: hMC-4R binding assay IC50/µM.

Each structure is given as a SMILES string. Read-outs that look alike come from different tables or passages of the source.

T1 sequence (P32245 whole entry): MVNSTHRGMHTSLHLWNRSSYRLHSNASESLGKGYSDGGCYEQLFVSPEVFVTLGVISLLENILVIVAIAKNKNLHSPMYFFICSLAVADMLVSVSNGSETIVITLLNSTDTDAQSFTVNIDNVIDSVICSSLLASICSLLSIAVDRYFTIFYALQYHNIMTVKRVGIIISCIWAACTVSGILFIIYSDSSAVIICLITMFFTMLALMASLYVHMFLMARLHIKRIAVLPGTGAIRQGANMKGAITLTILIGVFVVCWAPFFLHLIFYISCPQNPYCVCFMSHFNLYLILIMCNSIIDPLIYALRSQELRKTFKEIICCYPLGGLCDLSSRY

For the molecule `COc1ccc(Nc2nc3ccc(C(=O)N(CCC(C)C)CCC(C)C)nn3c2CCCN)cc1` [Example 1], the Emax at hMC-4R [1] came to 0%. At hMC-4R [2], this molecule returned an IC50 of 0.49 µM.

As to `CC(C)CCN(CCC(C)C)C(=O)c1ccc2nc(-c3ccc4c(c3)OCCO4)c(CCCN)n2n1` [Example 2], the Emax at hMC-4R [1] amounted to 0%. The molecule also gave an IC50 at hMC-4R [2] of 1.1 µM.

Regarding `CC(C)CCN(CCC(C)C)C(=O)c1ccc2nc(-c3ccc4c(c3)OCCO4)c(CCCN3CCCCC3)n2n1` [Example 3], on hMC-4R [1], the Emax is 0%. In addition, the IC50 on hMC-4R [2] (setting [3]) came to 0.12 µM.

As for `CC(C)CCN(CCC(C)C)C(=O)c1ccc2nc(-c3ccc(C#N)cc3)c(CCCN3CCCC3)n2n1` [Example 4], the Emax on hMC-4R [1] amounted to 0%. Further, on hMC-4R [2], the IC50 amounted to 0.3 µM.

In the case of `CC(C)CCN(CCC(C)C)C(=O)c1cnc2nc(-c3ccc(C#N)cc3)c(CCCN3CCCC3)n2c1` [Example 5], the Emax at hMC-4R [1] came out at 0%. Besides, on hMC-4R [2], the IC50 is 0.18 µM.

For the molecule `CC(C)CCN(CCC(C)C)C(=O)c1cnc2nc(-c3ccc(C#N)cc3)c(CCCN(C)C)n2c1` [Example 6], on hMC-4R [1], the Emax came out at 0%. The IC50 at hMC-4R [2] turned out to be 1 µM.

On to `CC(C)CCN(CCC(C)C)C(=O)c1cn2c(CCCN3CCCC3)c(-c3ccc(C#N)cc3)nc2cn1` [Example 7], for which the Emax on hMC-4R [1] was determined as 0%. The IC50 at hMC-4R [2] is 0.02 µM.

Take `CC(C)CCN(CCC(C)C)C(=O)c1cn2c(CCCN(C)C)c(-c3ccc(C#N)cc3)nc2cn1` [Example 8]: the Emax on hMC-4R [1] was 0%. Besides, the IC50 on hMC-4R [2] (setting [3]) stood at 0.19 µM.

For the molecule `CC(C)CCN(CCC(C)C)C(=O)c1cn2c(CCCN3CCCC3)c(-c3ccc(C(N)=O)cc3)nc2cn1` [Example 9], on hMC-4R [1], the Emax is 0%. Besides, the IC50 on hMC-4R [2] (setting [3]) came out at 0.048 µM.

As for `CC(C)CCN(CCC(C)C)C(=O)c1cn2c(CCCN(C)C)c(-c3ccc(C(N)=O)cc3)nc2cn1` [Example 10], the Emax at hMC-4R [1] was 0%. The same molecule had an IC50 on hMC-4R [2] of 0.28 µM.
